Source: ChEMBL document CHEMBL1201861, “Genomics of Drug Sensitity in Cancer screening data, Wellcome Trust Sanger Institute”

Columns and labels:
Calu-1 = test: SANGER: Inhibition of human Calu-1 cell growth in a cell viability assay.; assay type: functional, cell-based
Caov-3 cell line = test: cells; assay type: functional, cell-based; details: Homo sapiens
Description: SANGER: Inhibition of human Caov-3 cell growth in a cell viability assay.

DV-90 = test: cells; assay type: functional, cell-based; details: Homo sapiens
Description: SANGER: Inhibition of human DV-90 cell growth in a cell viability assay.

EB2 = test: cells; assay type: functional, cell-based; details: Homo sapiens
Description: SANGER: Inhibition of human EB2 cell growth in a cell viability assay.

EW-7 = test: SANGER: Inhibition of human EW-7 cell growth in a cell viability assay.; assay type: functional, cell-based; details: Homo sapiens, EW-7
HCC1143 = test: cells; assay type: functional, cell-based; details: Homo sapiens
Description: SANGER: Inhibition of human HCC1143 cell growth in a cell viability assay.

HSC-4 = test: cells; assay type: functional, cell-based, Homo sapiens; details: Homo sapiens, HSC-4
Description: SANGER: Inhibition of human HSC-4 cell growth in a cell viability assay.

LC-1F = test: cells; assay type: functional, cell-based; details: Homo sapiens
Description: SANGER: Inhibition of human LC-1F cell growth in a cell viability assay.

LC4-1 = test: cells; assay type: functional, cell-based; details: Homo sapiens
Description: SANGER: Inhibition of human LC4-1 cell growth in a cell viability assay.

MDA-MB-468 = test: cells; assay type: functional, cell-based; details: Homo sapiens
Description: SANGER: Inhibition of human MDA-MB-468 cell growth in a cell viability assay.

MES-SA = test: cells; assay type: functional, cell-based, Homo sapiens; details: Homo sapiens, MES-SA
Description: SANGER: Inhibition of human MES-SA cell growth in a cell viability assay.

MFE-296 = test: SANGER: Inhibition of human MFE-296 cell growth in a cell viability assay.; assay type: functional, cell-based
MONO-MAC-6 = test: cells; assay type: functional, cell-based; details: Homo sapiens
Description: SANGER: Inhibition of human MONO-MAC-6 cell growth in a cell viability assay.

NB1 = test: cells; assay type: functional, cell-based; details: Homo sapiens
Description: SANGER: Inhibition of human NB1 cell growth in a cell viability assay.

NCCIT = test: SANGER: Inhibition of human NCCIT cell growth in a cell viability assay.; assay type: functional, cell-based
NCI-H1573 = test: cells; assay type: functional, cell-based; details: Homo sapiens
Description: SANGER: Inhibition of human NCI-H1573 cell growth in a cell viability assay.

NCI-H1618 = test: cells; assay type: functional, cell-based; details: Homo sapiens
Description: SANGER: Inhibition of human NCI-H1618 cell growth in a cell viability assay.

NCI-H1734 = test: cells; assay type: functional, cell-based; details: Homo sapiens
Description: SANGER: Inhibition of human NCI-H1734 cell growth in a cell viability assay.

NCI-H187 = test: cells; assay type: functional, cell-based; details: Homo sapiens
Description: SANGER: Inhibition of human NCI-H187 cell growth in a cell viability assay.

NCI-H1963 = test: cells; assay type: functional, cell-based; details: Homo sapiens
Description: SANGER: Inhibition of human NCI-H1963 cell growth in a cell viability assay.

NCI-H2009 = test: cells; assay type: functional, cell-based, Homo sapiens; details: Homo sapiens, NCI-H2009
Description: SANGER: Inhibition of human NCI-H2009 cell growth in a cell viability assay.

NCI-H2171 = test: cells; assay type: functional, cell-based; details: Homo sapiens
Description: SANGER: Inhibition of human NCI-H2171 cell growth in a cell viability assay.

NCI-H2196 = test: cells; assay type: functional, cell-based; details: Homo sapiens
Description: SANGER: Inhibition of human NCI-H2196 cell growth in a cell viability assay.

NCI-H2227 = test: cells; assay type: functional, cell-based; details: Homo sapiens
Description: SANGER: Inhibition of human NCI-H2227 cell growth in a cell viability assay.

NCI-H322M = test: cells; assay type: functional, cell-based; details: Homo sapiens
Description: SANGER: Inhibition of human NCI-H322M cell growth in a cell viability assay.

NCI-H522 = test: cells; assay type: functional, cell-based, Homo sapiens; details: Homo sapiens, NCI-H522
Description: SANGER: Inhibition of human NCI-H522 cell growth in a cell viability assay.

NCI-H716 = test: cells; assay type: functional, cell-based; details: Homo sapiens
Description: SANGER: Inhibition of human NCI-H716 cell growth in a cell viability assay.

NCI-H719 = test: cells; assay type: functional, cell-based; details: Homo sapiens
Description: SANGER: Inhibition of human NCI-H719 cell growth in a cell viability assay.

OPM-2 = test: cells; assay type: functional, cell-based; details: Homo sapiens
Description: SANGER: Inhibition of human OPM-2 cell growth in a cell viability assay.

P31-FUJ = test: cells; assay type: functional, cell-based; details: Homo sapiens
Description: SANGER: Inhibition of human P31-FUJ cell growth in a cell viability assay.

PLC-PRF-5 = test: cells; assay type: functional, cell-based; details: Homo sapiens
Description: SANGER: Inhibition of human PLC-PRF-5 cell growth in a cell viability assay.

RPMI 8402 = test: SANGER: Inhibition of human RPMI-8402 cell growth in a cell viability assay.; assay type: functional, cell-based
RT-4 = test: SANGER: Inhibition of human RT4 cell growth in a cell viability assay.; assay type: functional, cell-based; details: Homo sapiens, RT-4
SCC-3 = test: cells; assay type: functional, cell-based; details: Homo sapiens
Description: SANGER: Inhibition of human SCC-3 cell growth in a cell viability assay.

SIG-M5 = test: cells; assay type: functional, cell-based; details: Homo sapiens
Description: SANGER: Inhibition of human SIG-M5 cell growth in a cell viability assay.

SK-CO-1 = test: cells; assay type: functional, cell-based; details: Homo sapiens
Description: SANGER: Inhibition of human SK-CO-1 cell growth in a cell viability assay.

SNG-M = test: cells; assay type: functional, cell-based; details: Homo sapiens
Description: SANGER: Inhibition of human SNG-M cell growth in a cell viability assay.

SNU-475 = test: cells; assay type: functional, cell-based; details: Homo sapiens
Description: SANGER: Inhibition of human SNU-475 cell growth in a cell viability assay.

SR = test: cells; assay type: functional, cell-based; details: Homo sapiens
Description: SANGER: Inhibition of human SR cell growth in a cell viability assay.

ARH-77 = test: cells; assay type: functional, cell-based; details: Homo sapiens
Description: SANGER: Inhibition of human ARH-77 cell growth in a cell viability assay.

BOKU = test: cells; assay type: functional, cell-based; details: Homo sapiens
Description: SANGER: Inhibition of human BOKU cell growth in a cell viability assay.

C-4-II = test: SANGER: Inhibition of human C-4-II cell growth in a cell viability assay.; assay type: functional, cell-based
THP-1 = test: cells; assay type: functional, cell-based; details: Homo sapiens
Description: SANGER: Inhibition of human THP-1 cell growth in a cell viability assay.

TT = test: cells; assay type: functional, cell-based; details: Homo sapiens
Description: SANGER: Inhibition of human TT cell growth in a cell viability assay.

TUR = test: cells; assay type: functional, cell-based; details: Homo sapiens
Description: SANGER: Inhibition of human TUR cell growth in a cell viability assay.

CHP-126 = test: cells; assay type: functional, cell-based; details: Homo sapiens
Description: SANGER: Inhibition of human CHP-126 cell growth in a cell viability assay.

COLO 205 = test: cells; assay type: functional, cell-based; details: Homo sapiens
Description: SANGER: Inhibition of human COLO-205 cell growth in a cell viability assay.

## Cn1cncc1[C@@](N)(c1ccc(Cl)cc1)c1ccc2c(c1)c(-c1cccc(Cl)c1)cc(=O)n2C [TIPIFARNIB]
Calu-1
  IC50: 0.181 µM
Caov-3 cell line
  IC50: > 16 µM
DV-90
  IC50: > 16 µM
EB2
  IC50: 2.72 µM
EW-7
  IC50: > 16 µM
HCC1143
  IC50: 13.3 µM
HSC-4
  IC50: > 16 µM
LC-1F
  IC50: > 16 µM
LC4-1
  IC50: 2.55 µM
MDA-MB-468
  IC50: > 16 µM
MES-SA
  IC50: 4.61 µM
MFE-296
  IC50: 1.45 µM
MONO-MAC-6
  IC50: 3.35 µM
NB1
  IC50: > 16 µM
NCCIT
  IC50: 1.28 µM
NCI-H1573
  IC50: 5.9 µM
NCI-H1618
  IC50: > 16 µM
NCI-H1734
  IC50: 14.5 µM
NCI-H187
  IC50: > 16 µM
NCI-H1963
  IC50: > 16 µM
NCI-H2009
  IC50: 0.363 µM
NCI-H2171
  IC50: 3.55 µM
NCI-H2196
  IC50: > 16 µM
NCI-H2227
  IC50: > 16 µM
NCI-H322M
  IC50: > 16 µM
NCI-H522
  IC50: 2.4 µM
NCI-H716
  IC50: > 16 µM
NCI-H719
  IC50: 10.5 µM
OPM-2
  IC50: > 16 µM
P31-FUJ
  IC50: > 16 µM
PLC-PRF-5
  IC50: > 16 µM
RPMI 8402
  IC50: 1.28 µM
RT-4
  IC50: 10.9 µM
SCC-3
  IC50: > 16 µM
SIG-M5
  IC50: < 0.0625 µM
SK-CO-1
  IC50: 13 µM
SNG-M
  IC50: 0.204 µM
SNU-475
  IC50: > 16 µM
SR
  IC50: 1.79 µM
ARH-77
  IC50: > 16 µM
BOKU
  IC50: > 16 µM
C-4-II
  IC50: 6.14 µM
THP-1
  IC50: > 16 µM
TT
  IC50: > 16 µM
TUR
  IC50: 0.871 µM
CHP-126
  IC50: > 16 µM
COLO 205
  IC50: 4.18 µM

## C[C@]1(O)C[C@@H](c2nc(-c3ccc4ccc(-c5ccccc5)nc4c3)c3c(N)nccn32)C1 [LINSITINIB]
Calu-1
  IC50: > 2.56 µM
Caov-3 cell line
  IC50: > 2.56 µM
DV-90
  IC50: > 2.56 µM
EB2
  IC50: > 2.56 µM
EW-7
  IC50: 0.189 µM
HCC1143
  IC50: 2.45 µM
HSC-4
  IC50: > 2.56 µM
LC-1F
  IC50: > 2.56 µM
LC4-1
  IC50: > 2.56 µM
MDA-MB-468
  IC50: > 2.56 µM
MES-SA
  IC50: > 2.56 µM
MFE-296
  IC50: > 2.56 µM
MONO-MAC-6
  IC50: > 2.56 µM
NB1
  IC50: > 2.56 µM
NCCIT
  IC50: > 2.56 µM
NCI-H1573
  IC50: > 2.56 µM
NCI-H1618
  IC50: > 2.56 µM
NCI-H1734
  IC50: > 2.56 µM
NCI-H187
  IC50: > 2.56 µM
NCI-H1963
  IC50: > 2.56 µM
NCI-H2009
  IC50: > 2.56 µM
NCI-H2171
  IC50: 1.78 µM
NCI-H2196
  IC50: > 2.56 µM
NCI-H2227
  IC50: > 2.56 µM
NCI-H322M
  IC50: > 2.56 µM
NCI-H522
  IC50: > 2.56 µM
NCI-H716
  IC50: > 2.56 µM
NCI-H719
  IC50: > 2.56 µM
OPM-2
  IC50: 2.1 µM
P31-FUJ
  IC50: > 2.56 µM
PLC-PRF-5
  IC50: > 2.56 µM
RPMI 8402
  IC50: > 2.56 µM
RT-4
  IC50: > 2.56 µM
SCC-3
  IC50: > 2.56 µM
SIG-M5
  IC50: 0.536 µM
SK-CO-1
  IC50: > 2.56 µM
SNG-M
  IC50: > 2.56 µM
SNU-475
  IC50: > 2.56 µM
SR
  IC50: > 2.56 µM
ARH-77
  IC50: > 2.56 µM
BOKU
  IC50: > 2.56 µM
C-4-II
  IC50: > 2.56 µM
THP-1
  IC50: > 2.56 µM
TT
  IC50: > 2.56 µM
TUR
  IC50: > 2.56 µM
CHP-126
  IC50: > 2.56 µM
COLO 205
  IC50: 0.105 µM
